Results from ChEMBL document CHEMBL1201862, “PubChem BioAssay data set” (2004).
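These data come from cells grown in 96-well plates and exposed to compound for 48 hours at five concentrations. Here, GI50 denotes the concentration required for 50% inhibition of growth.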 Activity calls are given as the source filed them. Rule as the data show it: active = GI50 up to about 1.1 µM and inactive = higher.

Tests used:
Assay in all cases: growth of human tumour cells (NCI), 48 h
[1] = system: NCI-H23
[2] = system: SF-268
[3] = system: NCI-H226
[4] = system: RXF 393
[5] = system: UACC-257
[6] = system: SNB-19
[7] = system: IGROV-1
[8] = system: U-251
[9] = system: SN12C
[10] = system: SK-MEL-5
[11] = system: DMS-114
[12] = system: HCT-15
[13] = system: CCRF-CEM
[14] = system: SW-620
[15] = system: OVCAR-3
[16] = system: LOX IMVI
[17] = system: Malme-3M
[18] = system: OVCAR-5
[19] = system: COLO 205
[20] = system: UO-31
[21] = system: HT-29
[22] = system: KM12
[23] = system: SNB-78
[24] = system: TK-10
[25] = system: LXFL 529
[26] = system: ACHN
[27] = system: OVCAR-8
[28] = system: DLD-1
[29] = system: 786-0
[30] = system: SK-MEL-28
[31] = system: XF498
[32] = system: A549
[33] = system: CAKI-1
[34] = system: DMS-273
[35] = system: HCC 2998
[36] = system: HOP-62
[37] = system: SNB-75
[38] = system: A498
[39] = system: HCT-116
[40] = system: OVCAR-4
[41] = system: RPMI-8226
[42] = system: HOP-92
[43] = system: NCI-H522
[44] = system: M14
[45] = system: SK-OV-3
[46] = system: SK-MEL-2
[47] = system: SF-539
[48] = system: KM-20L2
[49] = system: K562
[50] = system: EKVX
[51] = system: MOLT-4
[52] = system: HL-60
[53] = system: UACC-62
[54] = system: NCI-H460
[55] = system: M19-MEL
[56] = system: NCI/ADR-RES
[57] = system: MDA-MB-231
[58] = system: SF-295
[59] = system: T47D
[60] = system: Hs-578T
[61] = system: BT-549
[62] = system: MCF7
[63] = system: MDA-MB-435
[64] = system: SR
[65] = system: PC-3
[66] = system: HOP-18
[67] = system: MDA-N
[68] = system: DU-145

Measured: GI50

CSC1C=C(C(C)C)CCC1(C)SC (stereo not drawn)
21 µM: [12]
inactive: [1] 19.3 µM | [2] 20.6 µM | [3] 17.4 µM | [4] 15.5 µM | [5] 15.9 µM | [6] 21.2 µM | [7] 20.9 µM | [8] 19.5 µM | [9] 16.9 µM | [10] 17.5 µM | [11] 15.7 µM | [13] 21 µM | [14] 19.9 µM | [15] 12.6 µM | [16] 18.3 µM | [17] 13.3 µM | [18] 16.2 µM | [19] 16.2 µM | [20] 14.3 µM | [21] 15.4 µM | [22] 14.3 µM | [23] 16.5 µM | [24] 21.4 µM | [25] 18.4 µM | [26] 18.7 µM | [27] 19.4 µM | [28] 18 µM | [29] 17.8 µM | [30] 19.4 µM | [31] 19.6 µM | [32] 31.5 µM | [33] 18.3 µM | [34] 19 µM | [35] 16.6 µM | [36] 19.5 µM | [37] 17.6 µM | [38] 25.6 µM | [39] 19.2 µM | [40] 18.1 µM | [41] 20.9 µM | [42] 16.2 µM | [43] 16.3 µM | [44] 16.9 µM | [45] 21.4 µM | [46] 17.7 µM | [47] 18.7 µM | [48] 28.2 µM | [49] 16.7 µM | [50] 24.5 µM | [51] 16.5 µM | [52] 2.3 µM | [53] 25.6 µM | [54] 17.2 µM | [55] 16.9 µM

COC12C(COC(=O)NCCO)C3=C(C(=O)C(C)=C(N)C3=O)N1CC1NC12 (stereo not drawn)
170 µM: [12]
inactive: [1] 4.94 µM | [2] 11.6 µM | [3] 16.9 µM | [4] 24 µM | [5] 69.7 µM | [6] 16.4 µM | [7] 29.2 µM | [56] > 264 µM | [8] 4.05 µM | [9] 7.94 µM | [10] 14.2 µM | [11] 22.9 µM | [13] 12.1 µM | [14] 16.7 µM | [15] 68.7 µM | [16] 13.8 µM | [17] 21.1 µM | [57] 233 µM | [18] 28.7 µM | [19] 37.7 µM | [20] > 100 µM | [21] 29.2 µM | [58] 6.62 µM | [22] 69.3 µM | [23] 80.5 µM | [24] 83.2 µM | [25] 56.2 µM | [26] 6.59 µM | [27] 38.3 µM | [28] 41.4 µM | [29] 20.9 µM | [30] > 100 µM | [59] 60.3 µM | [32] 7.66 µM | [33] 2.77 µM | [34] 2.52 µM | [35] 34.8 µM | [60] 198 µM | [61] 54.5 µM | [62] 16 µM | [36] 6.47 µM | [63] 140 µM | [37] 17.4 µM | [64] 35.2 µM | [38] 60.7 µM | [65] 35.2 µM | [39] 18.9 µM | [66] 36.8 µM | [40] 65.8 µM | [41] 74.8 µM | [42] 30 µM | [67] 86.1 µM | [43] 14.5 µM | [44] 11.5 µM | [45] 24.4 µM | [46] 30.9 µM | [47] 7.83 µM | [48] 37.9 µM | [49] 103 µM | [50] > 264 µM | [51] 35.2 µM | [68] 39.4 µM | [52] 58.9 µM | [53] 8.11 µM | [54] 5.01 µM | [55] 19.8 µM

CN(CCN(C)C(=O)CCn1cc(F)c(=O)[nH]c1=O)C(=O)CCn1cc(F)c(=O)[nH]c1=O
inactive: [1] > 100 µM | [2] > 100 µM | [3] > 100 µM | [4] > 100 µM | [6] > 100 µM | [7] > 100 µM | [8] > 100 µM | [9] > 100 µM | [10] > 100 µM | [11] > 100 µM | [13] > 100 µM | [14] > 100 µM | [15] > 100 µM | [16] > 100 µM | [17] > 100 µM | [18] > 100 µM | [19] > 100 µM | [20] > 100 µM | [21] > 100 µM | [58] > 100 µM | [22] > 100 µM | [24] > 100 µM | [25] > 100 µM | [26] > 100 µM | [27] > 100 µM | [29] > 100 µM | [30] > 100 µM | [31] > 100 µM | [32] > 100 µM | [34] > 100 µM | [35] > 100 µM | [36] > 100 µM | [37] 36.2 µM | [64] > 100 µM | [39] > 100 µM | [40] > 100 µM | [41] > 100 µM | [43] 3.16 µM | [44] > 100 µM | [46] > 100 µM | [47] 95.5 µM | [48] > 100 µM | [49] > 100 µM | [50] > 100 µM | [51] > 100 µM | [52] > 100 µM | [53] > 100 µM | [54] > 100 µM | [55] > 100 µM
> 100 µM: [12]

COc1cc(C2c3cc4c(cc3[C@@H](NCCN(C)C)C3COC(=O)[C@H]23)OCO4)cc(OC)c1O (stereo partly drawn)
active: [6] 0.338 µM | [8] 0.0359 µM | [10] 0.0869 µM | [14] 0.153 µM | [15] 1.05 µM | [17] 0.21 µM | [20] 0.149 µM | [21] 0.536 µM | [22] 0.475 µM | [24] 0.853 µM | [28] 1.06 µM | [30] 0.284 µM | [31] 0.12 µM | [41] 0.455 µM | [42] 0.0232 µM | [44] 0.229 µM | [47] 0.0375 µM | [49] 0.253 µM | [55] 0.575 µM
inactive: [25] 1.43 µM | [40] 1.98 µM
0.147 µM: [12]

COc1cc(CNc2ccc(C)cc2)cc(OC)c1OC
inactive: [5] 7.05 µM | [31] 1.29 µM
active: [1] 0.277 µM | [2] 0.615 µM | [4] 0.301 µM | [6] 0.356 µM | [7] 0.577 µM | [8] 0.252 µM | [10] 0.923 µM | [11] 0.225 µM | [13] 0.259 µM | [14] 0.11 µM | [15] 0.179 µM | [16] 0.46 µM | [18] 1.02 µM | [19] 0.151 µM | [20] 0.843 µM | [25] 0.46 µM | [27] 0.65 µM | [28] 0.375 µM | [29] 0.376 µM | [32] 0.423 µM | [34] 0.0925 µM | [36] 0.44 µM | [37] 0.21 µM | [41] 0.5 µM | [45] 0.251 µM | [46] 0.417 µM | [48] 0.159 µM | [49] 0.148 µM | [51] 0.175 µM | [52] 0.0948 µM | [54] 0.471 µM | [55] 0.252 µM
